Tests used:
[1] = tested on: L1210 murine leukaemia; assay: In vitro antiproliferative activity (Microculture Tetrazolium Assay) on L1210; type: cell-based; details: L1210 cells, exposure 4 doubling periods or 48 hours; read-out: IC50, the concentration of cytotoxic agent that inhibits the proliferation of the treated cells by 50%
Protocol: (§1) Three cell lines were used: • L1210 murine leukaemia • A549 non-small-cell human lung carcinoma • DU145 prostate carcinoma
(§2) L1210 murine leukaemia was used in vitro. The cells are cultured in RPMI 1640 complete culture medium containing 10% foetal calf serum, 2 mM glutamine, 50 units/ml of penicillin, 50 μg/ml of streptomycin and 10 mM Hepes, pH: 7.4. The cells are distributed on microplates and are exposed to the cytotoxic compounds for 4 doubling periods, or 48 hours. The number of viable cells is then quantified by a colorimetric assay, the Microculture Tetrazolium Assay (J. Carmichael et al., Cancer Res.; 47, 936–942 (1987)). The results are expressed as the IC50, the concentration of cytotoxic agent that inhibits the proliferation of the treated cells by 50%.

[2] = tested on: A549 non-small-cell human lung carcinoma; assay: In vitro antiproliferative activity (Microculture Tetrazolium Assay) on A549; type: cell-based; details: A549 cells; read-out: IC50, the concentration of cytotoxic agent that inhibits the proliferation of the treated cells by 50%
Protocol: as §1, §2

[3] = tested on: DU145 prostate carcinoma; assay: In vitro antiproliferative activity (Microculture Tetrazolium Assay) on DU145; type: cell-based; details: DU 145 cells; read-out: IC50, the concentration of cytotoxic agent that inhibits the proliferation of the treated cells by 50%
Protocol: as §1, §2

melting point	Compound	IC50 [1]	IC50 [2]	IC50 [3]
294 °C (dec.)	Cn1c(=O)c2c3[nH]c4ccccc4c3c3c(=O)oc(=O)c3c2c1=O	–	–	–
–	Cn1c(=O)c2c3[nH]c4ccccc4c3c3c(=O)n(C)c(=O)c3c2c1=O [Example 2, 2,5-dimethyl-1H-dipyrrolo[3,4-a:3,4-c]carbazole-1,3,4,6(2H,5H,7H)-tetrone]	6.8 µM	4.7 µM	5.4 µM
